Like-named read-outs stand apart in the source and are kept apart here.

A word on the Kd: it is the concentration at which binding is half-saturated. A word on the inhibition: it is the share of the control response that was lost under treatment.

For one experiment, the target named is T1, LTD4 receptor (Cavia porcellus, UniProt Q2NNR5).
T1 construct: guinea pig pulmomembranous protein; from tissue; host or cells: guinea pig lung membranes
T1 sequence (Q2NNR5 1-340): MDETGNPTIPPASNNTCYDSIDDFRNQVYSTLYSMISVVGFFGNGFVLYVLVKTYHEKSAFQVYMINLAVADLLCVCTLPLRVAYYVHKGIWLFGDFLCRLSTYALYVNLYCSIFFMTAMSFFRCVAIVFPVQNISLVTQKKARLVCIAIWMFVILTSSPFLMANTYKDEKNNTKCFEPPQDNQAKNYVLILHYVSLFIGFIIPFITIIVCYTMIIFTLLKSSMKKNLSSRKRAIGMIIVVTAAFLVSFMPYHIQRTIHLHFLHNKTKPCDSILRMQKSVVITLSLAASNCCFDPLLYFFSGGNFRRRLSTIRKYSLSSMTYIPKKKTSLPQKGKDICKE
Nature of the experiment: LTD4 receptor binding inhibition test ([^3 H]leukotriene D4, guinea pig pulmomembranous protein). Conditions: for Kd: read-out: LTD4 receptor, dissociation constant KD; for inhibition at 10 µM / inhibition at 100 µM: read-out: LTD4 receptor (%), inhibition rate; for inhibition at 100 µM: a: 100 μM. The procedure:
2) LTD4 Receptor Binding Inhibition Test
An ice-cooled tris hydrochloride/sodium chloride buffer (10 mM/100 mM, pH 7.5) was added to terminate the reaction, followed by immediate filtration through a Wattman CF/C filter. The filter was washed twice with 20 ml aliguots of the ice-cooled buffer. The radioactivity of the residue was measured by a liquid scintillation counter. […] In a binding assay, 2 μM leukotriene D4 was used for the measurement of a nonspecific binding.

A further experiment addresses T2, H1 receptor (Cavia porcellus, UniProt P31389).
T2 construct: guinea pig cerebromembranous protein; from tissue; host or cells: guinea pig cerebral (brain) membranes
Nature of the experiment: H1 receptor binding inhibition test ([^3 H]mepyramin, guinea pig cerebromembranous protein). Conditions: for Kd: read-out: H1 receptor, dissociation constant KD. The procedure:
1) H1 Receptor Binding Inhibition Test
An ice-cooled phosphate buffer was added to terminate the reaction, followed by immediate filtration through a Wattman CF/C filter. The filter was washed twice with 20 ml aliquots of the ice-cooled buffer. The radioactivity of the residue was measured by a liquid scintillation counter. From a measurement value obtained without the addition of the test compound and measurements values obtained upon addition of the test compound at various concentrations, the dose-response of the inhibitory action of the test compound was measured and the 50% inhibitory concentration (IC50) was determined. Using the Cheng-Prusoff formula, a dissociation constant was calculated from the IC50. In a binding assay, 10^-4 M R(-)dimethindene was used for the measurement of a nonspecific binding.

The mark [1] stands for this setting: 0.2 nM [^3 H]leukotriene D4, pH 7.5, 22° C., 30 minutes, calculated from IC50.
Setting [2] is: 0.5 nM [^3 H]mepyramin, pH 7.5, 37° C., 30 minutes, calculated from IC50 with Cheng-Prusoff formula.
[3] abbreviates: a: 100 μM, read-out: H1 receptor (%), inhibition rate.

T2 sequence (P31389 whole entry): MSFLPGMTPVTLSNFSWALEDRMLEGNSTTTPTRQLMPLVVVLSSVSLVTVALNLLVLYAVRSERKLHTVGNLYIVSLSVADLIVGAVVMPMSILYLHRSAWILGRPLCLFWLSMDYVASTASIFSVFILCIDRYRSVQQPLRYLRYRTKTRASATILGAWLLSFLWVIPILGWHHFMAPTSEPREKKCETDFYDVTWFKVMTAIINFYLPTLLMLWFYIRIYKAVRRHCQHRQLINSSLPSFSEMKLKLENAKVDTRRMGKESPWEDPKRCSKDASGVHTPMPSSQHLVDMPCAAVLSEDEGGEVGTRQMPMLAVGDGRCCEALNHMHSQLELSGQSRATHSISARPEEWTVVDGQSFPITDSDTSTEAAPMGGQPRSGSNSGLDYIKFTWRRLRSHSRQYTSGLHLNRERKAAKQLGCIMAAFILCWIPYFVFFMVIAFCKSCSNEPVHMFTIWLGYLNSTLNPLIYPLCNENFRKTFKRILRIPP

On to “7-[3-(2-Quinolinylmethoxy)benzyloxy]-3,4-dihydro-2H-1,4-benzothiazin-3-one 1,1-dioxide [Example 77]”, for which, at LTD4 receptor (setting [1]), the Kd is 129 nM. Moreover, the “H1 receptor (%), inhibition rate” value at H1 receptor (a: 100 μM) stood at 30%.

In the case of “7-[3-(2-quinolinylmethoxy)benzyloxy]-2,3,4,5-tetrahydro-tetrazolo-[5,1-a][2]benzazepin [Example 87]”, the Kd at LTD4 receptor (setting [1]) is 11.4 nM; at H1 receptor (setting [2]) it was 67200 nM.

For the compound “7-[4-(2-quinolinylmethoxy)benzyloxy]-2,3,4,5-tetrahydro-tetrazolo-[5,1-a][2]benzazepin [Example 88]”, the “LTD4 receptor (%), inhibition rate” value at LTD4 receptor (b: 10 μM) came out at 30%. On H1 receptor (setting [2]), the Kd is 31100 nM.

Take `CN(Cc1cccc(OCc2ccc3ccccc3n2)c1)c1ccc2c(c1)SCC(=O)N2` [96(a), 7-[N-methyl-N-{3-(2-quinolinylmethoxy)benzyl}amino]-3,4-dihydro-2H-1,4-benzothiazin-3-one]: the inhibition at 10 µM on LTD4 receptor (b: 10 μM) was found to be 9%; at H1 receptor (b: 10 μM, read-out: H1 receptor (%), inhibition rate) it was 4%.

Turning to `N#Cc1cc2cc(OCc3cccc(OCc4ccc5ccccc5n4)c3)ccc2[nH]c1=O` [Example 1, 3-cyano-6-[3-(2-quinolinylmethoxy)benzyloxy]-1,2-dihydroquinolin-2-one], the Kd at LTD4 receptor turned out to be 118 nM.

On to `Cc1ccc(OCc2cccc(OCc3ccc4ccccc4n3)c2)c2ccc(=O)[nH]c12` [Example 2, 8-Methyl-5-[3-(2-quinolinylmethoxy)benzyloxy]-1,2-dihydroquinolin-2-one], for which the equilibrium dissociation constant (Kd) at LTD4 receptor came out at 1560 nM.

On to `Cc1ccc(OCc2cccc(OCc3ccc4ccccc4n3)c2)c2cc(C#N)c(=O)[nH]c12` [Example 3, 3-Cyano-8-methyl-5-[3-(2-quinolinylmethoxy)benzyloxy]-1,2-dihydroquinolin-2-one], for which, at LTD4 receptor, the equilibrium dissociation constant (Kd) worked out at 523 nM. Further, the inhibition at 100 µM at H1 receptor (setting [3]) amounted to 44%.

As for `Cc1ccc(OCc2cccc(OCc3ccc4ccccc4n3)c2)c2cc(Cl)c(=O)[nH]c12` [Example 4], the inhibition at 100 µM on LTD4 receptor was determined as 0%.

Consider `Cc1ccc(OCc2cccc(OCc3ccc4ccccc4n3)c2)c2c1NC(=O)CC2` [Example 5, 8-Methyl-5-[3-(2-quinolinylmethoxy)benzyloxy]-1,2,3,4-tetrahydroquinolin-2-one], for which the Kd at LTD4 receptor was 316 nM. The inhibition at 100 µM at H1 receptor (setting [3]) turned out to be 57%.

For the compound `O=C1CCc2ccc(OCc3cccc(OCc4ccc5ccccc5n4)c3)cc2N1` [Example 7], at LTD4 receptor, the Kd was determined as 209 nM. In addition, at H1 receptor (setting [3]), the inhibition at 100 µM worked out at 46%.

Turning to `O=C1CCc2cccc(OCc3cccc(OCc4ccc5ccccc5n4)c3)c2N1` [Example 8, 8-[3-(2-Quinolinylmethoxy)benzyloxy]-1,2,3,4-tetrahydroquinolin-2-one], the Kd at LTD4 receptor came out at 322 nM; at H1 receptor, 145000 nM.

Regarding `O=C1CCCc2cc(OCc3cccc(OCc4ccc5ccccc5n4)c3)ccc2N1` [Example 9, 7-[3-(2-Quinolinylmethoxy)benzyloxy]-2,3,4,5-tetrahydrobenz[b]azepin-2-one], the results for the Kd at LTD4 receptor and at H1 receptor were 148 nM and 47600 nM, respectively.

For the compound `O=C1CCSc2cc(OCc3cccc(OCc4ccc5ccccc5n4)c3)ccc2N1` [Example 11, 8-[3-(2-Quinolinylmethoxy)benzyloxy]-2,3,4,5-tetrahydro-1,5-benzothiazepin-4-one], at LTD4 receptor, the equilibrium dissociation constant (Kd) is 22 nM. Further, the inhibition at 100 µM on H1 receptor (setting [3]) turned out to be 47%.

Turning to `O=C1Cc2c(cccc2OCc2cccc(OCc3ccc4ccccc4n3)c2)N1` [Example 12, 4-[3-(2-Quinolinylmethoxy)benzyloxy)-2,3-dihydro-1H-indol-2-one], on LTD4 receptor, the Kd is 703 nM. The “H1 receptor (%), inhibition rate” value on H1 receptor (concentration not given) was 45%.

As to `Cc1ccc(OCc2cccc(OCc3ccc4ccccc4n3)c2)c2c1NC(=O)C2(C)C` [Example 13, 4-[3-(2-Quinolinylmethoxy)benzyloxy]-3,3,7-trimethyl-2,3-dihydro-1H-indol-2-one], the dissociation constant (Kd) on LTD4 receptor was 303 nM.

For the compound `CC1(C)C(=O)Nc2ccc(OCc3cccc(OCc4ccc5ccccc5n4)c3)cc21` [Example 14, 3,3'-Dimethyl-5-[3-(2-quinolinylmethoxy)benzyloxy]-2,3-dihydro-1H-indol-2-one], at LTD4 receptor, the Kd amounted to 215 nM. Moreover, at H1 receptor (setting [3]), the inhibition at 100 µM is 29%.

Regarding `Cc1ccc(OCc2ccc(OCc3ccc4ccccc4n3)cc2)c2cc(C#N)c(=O)[nH]c12` [Example 19, 3-Cyano-8-methyl-5-[4-(2-quinolinylmethoxy)benzyloxy]-1,2-dihydroquinolin-2-one], the inhibition at 100 µM at LTD4 receptor is 0%.

Regarding `Cc1ccc(OCc2ccc(OCc3ccc4ccccc4n3)cc2)c2cc(Cl)c(=O)[nH]c12` [Example 20, 3-Chloro-8-methyl-5-[4-(2-quinolinylmethoxy)benzyloxy]-1,2-dihydroquinolin-2-one], the inhibition at 100 µM at LTD4 receptor came to 0%.

For the compound `O=C1CSc2cc(OCc3ccc(OCc4ccc5ccccc5n4)cc3)ccc2N1` [Example 26, 7-[4-(2-Quinolinylmethoxy)benzyloxy]-3,4-dihydro-2H-1,4-benzothiazin-3-one], the Kd at LTD4 receptor amounted to 546000 nM.

In the case of `Cc1ccc(OCc2cccc(OCc3ccc4ccccc4n3)c2)c2cc(-c3nn[nH]n3)c(=O)[nH]c12` [Example 47, 8-methyl-5-[3-(2-quinolinylmethoxy)benzyloxy]-3-(5-tetrazolyl)-1,2-dihydroquinolin-2-one], the equilibrium dissociation constant (Kd) on LTD4 receptor was determined as 335 nM.

For the compound `Cc1ccc(OCc2ccc(OCc3ccc4ccccc4n3)cc2)c2cc(-c3nn[nH]n3)c(=O)[nH]c12` [Example 48, 8-methyl-5-[4-(2-quinolinylmethoxy)benzyloxy]-3-(5-tetrazolyl)-1,2-dihydroquinolin-2-one], at LTD4 receptor, the dissociation constant Kd is 304 nM.

In the case of `Cc1ccc(OCc2cccc(OCc3ccc4ccccc4n3)c2)c2c1NC(=S)C2(C)C` [Example 49, 4-[3-(2-quinolinylmethoxy)benzyloxy]-3,3,7-trimethyl-2,3-dihydro-1H-indol-2-thione], the Kd on LTD4 receptor amounted to 40000 nM.

In the case of `O=C(O)c1cc2cc(OCc3cccc(OCc4ccc5ccccc5n4)c3)ccc2[nH]c1=O` [Example 50, 2-oxo-6-[3-(2-quinolinylmethoxy)benzyloxy]-1,2-dihydroquinoline-3-carboxylic acid], the equilibrium dissociation constant (Kd) on LTD4 receptor was found to be 1080 nM.

With `Cc1ccc(OCc2cccc(OCc3ccc4ccccc4n3)c2)c2cc(C(=O)O)c(=O)[nH]c12` [Example 51, 8-methyl-2-oxo-5-[3-(2-quinolinylmethoxy)benzyloxy]-1,2-dihydroquinoline-3-carboxylic acid], at LTD4 receptor, the dissociation constant Kd is 11700 nM.

Take `Cc1ccc(OCc2ccc(OCc3ccc4ccccc4n3)cc2)c2cc(C(=O)O)c(=O)[nH]c12` [Example 52, 8-methyl-2-oxo-5-[4-(2-quinolinylmethoxy)benzyloxy]-1,2-dihydroquinoline-3-carboxylic acid]: the dissociation constant (Kd) at LTD4 receptor is 302 nM.

Regarding `O=C1CSc2cc(OC(=O)c3cccc(OCc4ccc5ccccc5n4)c3)ccc2N1` [Example 58, 7-[3-(2-Quinolinylmethoxy]benzoyloxy]-3,4-dihydro-2H-1,4-benzothiazin-3-one], the inhibition at 100 µM on LTD4 receptor was determined as 0%.

Regarding `Cc1ccc(OC(=O)c2ccc(OCc3ccc4ccccc4n3)cc2)c2cc(C#N)c(=O)[nH]c12` [Example 62, 3-Cyano-8-methyl-5-[4-(2-quinolinylmethoxy)benzoyloxy]-1,2-dihydroquinolin-2-one], at LTD4 receptor (concentration not given), the “LTD4 receptor (%), inhibition rate” value is listed as 0%.

In the case of `O=C1CSc2cc(OC(=O)c3ccc(OCc4ccc5ccccc5n4)cc3)ccc2N1` [Example 66, 7-[4-(2-Quinolinylmethoxy)benzoyloxy]-3 4-dihydro-2H-1,4-benzothiazin-3-one], the inhibition at 10 µM at LTD4 receptor (b: 10 μM) was 28%.

Regarding `O=C1CSc2cc(NC(=O)c3cccc(OCc4ccc5ccccc5n4)c3)ccc2N1` [Example 72, 7-[3-(2-Quinolinylmethoxy)benzoylamino]-3,4-dihydro-2H-1,4-benzothiazin-3-one], the dissociation constant Kd at LTD4 receptor came to 46.2 nM.

On to `O=C1CSc2cc(NC(=O)c3ccc(OCc4ccc5ccccc5n4)cc3)ccc2N1` [Example 73], for which the inhibition at 10 µM on LTD4 receptor (b: 10 μM) came to 20%.

Regarding `O=C1CS(=O)(=O)c2cc(OCc3cccc(OCc4ccc5ccccc5n4)c3)ccc2N1` [Example 74, 7-[3-(2-quinolinylmethoxy)benzyloxy]-3,4-dihydro-2H-1,4-benzothiazin-3-one1,1-dioxide], the Kd at LTD4 receptor was determined as 235000 nM.

For the compound `O=C1CSc2cc(OCc3cccc(/C=C/c4ccc5ccc(Cl)cc5n4)c3)ccc2N1` [Example 81, trans-7-[3-[2-(7-chloroquinolin-2-yl)ethenyl]benzyloxy]-2H-3,4-dihydro-1,4-benzothiazin-3-one], at LTD4 receptor, the dissociation constant (Kd) was 13 nM.

Source of the values: patent US5885987A, “Phenylene derivatives” (Kowa Co., Ltd., priority 1996, dated 1999).
